The values below come from patent US6187585A, “Oligonucleotide inhibition of epidermal growth factor receptor expression” (Isis Pharmaceuticals, Inc., priority 1999, dated 2001).

Data set [1] concerns EGFR mRNA. The experiment in a line: EGFR mRNA inhibition, Northern blot, A549 human lung carcinoma cells. It counts as cell-based. The note with it: for % Inhibition of EGFR mRNA (10 kb band): 300 nM oligonucleotide, 15 μg/ml LIPOFECTIN, relative to untreated control, normalized to G3PDH.
Data set [2] deals with EGFR mRNA. The experiment in a line: EGFR mRNA inhibition, Northern blot, SKOV3 human ovarian carcinoma cells. It counts as cell-based. Particulars: for % Inhibition of EGFR mRNA (10 kb band): 300 nM oligonucleotide, 15 μg/ml LIPOFECTIN, relative to untreated control, normalized to β-actin.
Another data set has as its system EGFR protein. The experiment in a line: EGFR protein synthesis, metabolic labeling and immunoprecipitation, SKOV3 cells. It counts as cell-based, human. The note with it: 35S-methionine labeling, compared to untreated cells. Here is the method: Human SKOV3 ovarian carcinoma cells were obtained from the American Type Culture Collection. They were grown in McCoy's 5A medium containing NaHCO3, 10% fetal bovine serum and antibiotics and routinely passaged. A549 human lung carcinoma cells were routinely passaged in DMEM medium supplemented with 10% fetal bovine serum.
SKOV3 cells were treated with the indicated oligonucleotides in serum-free, methionine-free OPTI-MEM® medium for 2.5 hours. The medium was then replaced with methionine-free OPTI-MEM® containing ^35 S-methionine (100 μCi/ml) and 2% dialyzed fetal bovine serum for 10 hours. Cell extracts were prepared as described by Kumar et al., Proc. Natl. Acad. Sci. USA, 1992, 89, 6599. Aliquots containing equal amounts of trichloroacetic acid-precipitable counts per minute were subjected to immunoprecipitation with anti-EGFR monoclonal antibody 528/rabbit anti-mouse IgG/protein A-Sepharose conjugate. Kumar et al., Proc. Natl. Acad. Sci. USA, 1992, 89, 6599 and Korutla et al., Carcinogenesis, 1995, 16, 1741. Lysates containing equal amounts of protein were also resolved on a 10% SDS-polyacrylamide gel and stained with Coomassie blue.
ISIS 10563, ISIS 12876 and ISIS 12877 were added to exponentially growing SKOV3 cells. Cells were metabolically labeled with ^35 S-methionine and newly synthesized EGFR protein was immunoprecipitated. […] Coomassie blue staining confirmed that proteins other than EGFR were not affected by treatment of cells with antisense oligonucleotides.

Data set [3] has as its system EGFR mRNA. The experiment in a line: EGFR mRNA, Northern blot, both cell types together (A549 and SKOV3). It counts as cell-based, human. Particulars: 300 nM. Here is the method: SKOV3 and A549 cells were grown in T-75 flasks until 65-75% confluent. The cells were washed once with serum-free OPTI-MEM® medium (Life Technologies, Inc., Grand Island, N.Y.) and 5 ml of the serum-free OPTI-MEM® containing 15 μg/ml of LIPOFECTIN® reagent (a 1:1 liposome formulation of the cationic lipid DOTMA and DOPE, Life Technologies, Inc.) was added. At that time, 300 nM of oligonucleotide was added and swirled vigorously. After a 4-5 hour incubation at 37° C., the solution was removed and fresh maintenance medium containing 10% fetal bovine serum was added. The cells were again incubated overnight at 37° in 5% CO2, after which the cells were assayed for EGFR MRNA expression or cell growth.
Total mRNA was extracted from the cells. For SKOV3 cells, cells were washed twice with PBS and 1-2 ml of RNAZOL B® (Tel-Test, Inc., Friendswood Tex.) was added. An incubation at 4° C. for 5-30 minutes was done and the cells were scraped into an Eppendorf tube. This solution was frozen at -80° C. for 20 minutes, thawed and chloroform (200 μl/ml) was added. The solution was centrifuged at 12,000×g for 15 minutes at 4° C. and the aqueous layer was transferred to a clean Eppendorf tube. An equal volume of isopropanol was added and incubated at room temperature for 15 minutes. Another centrifugation at 12,000×g for 15 minutes at 4° C. was done. The pellet was washed with 500 μl of 75% ethanol and centrifuged at 7500×g for 5 minutes at 4° C. As much of the supernatant as possible was removed and the pellet was resuspended in 30 μl of double distilled water. For A549 cells, total mRNA was extracted using a guanidinium/cesium chloride extraction protocol as described by Dean et al., J. Biol. Chem., 1994, 269, 16416. Ten μg of this mRNA was resolved on a 1.0% agarose gel containing 3.0% formaldehyde and transferred to a nylon membrane. […] The membrane was exposed to autoradiography film at -80° C. and the MRNA bands quantitated using a densitometer (Molecular Dynamics). Blots were stripped of radioactivity by boiling and then reprobed with a ^32 P-labeled control probe which hybridized either to G3PDH (Clontech Laboratories, Inc., Palo Alto Calif.) or β-actin (Ambion, Austin Tex.).
Some of the oligonucleotides in Table 1 were tested for their ability to inhibit EGFR mRNA expression in A549 human lung carcinoma cells and SKOV3 human ovarian carcinoma cells, both of which overexpress the EGFR. […] Total RNA was extracted and quantitated by Northern blot analysis, using PCR-generated EGFR cDNA probes. Bands were quantitated on a densitometer and normalized to control probe bands (G3PDH for the A549 cells and β-actin for the SKOV3 cells). […]

A further data set deals with EGFR tyrosine kinase. The note with it: cited from earlier work.
For a further data set, the system named is A431 cells. Particulars: cited from earlier work.
[4] abbreviates: 300 nM, scrambled control, 10 kb band.

Strand notation (5' to 3'): a small letter for the sugar, then the base; units joined by * are phosphorothioate-linked, units joined directly phosphodiester-linked; [ ] holds rarer units or linkages, { } end groups; capitals alone tell only the bases. d = 2'-deoxy (DNA)

With “ISIS 10565: CTCGGCTGACATTCCGGCAA; phosphorothioate 2'-deoxy; coding region, Ullrich 1761-1780 (antisense dC*dT*dC*dG*dG*dC*dT*dG*dA*dC*dA*dT*dT*dC*dC*dG*dG*dC*dA*dA)”, the figures for the “% Inhibition of EGFR mRNA (10 kb band)” value in the data set on EGFR mRNA [1] and in the data set with EGFR mRNA [2] were 43% and 33%, respectively.

As to “ISIS 12139: GAGTTCGCGTCCTTTCTCCA; scrambled control; phosphorothioate (all phosphorothioate, sugars by position and methylation of C not given here) [reference compound]”, the “reduction of EGFR protein production / EGFR synthesis” value with EGFR protein came out at 10%. Besides, the “increase in EGFR mRNA compared to untreated controls” value in the data set on EGFR mRNA [1] (setting [4]) is reported as 18%; in the data set on EGFR mRNA [2] (setting [4]) it was 39%.

In the case of “ISIS 10563: CCCCAGCAGCTCCCATTGGG; phosphorothioate deoxyoligonucleotide; coding region, Ullrich 769-788 (antisense dC*dC*dC*dC*dA*dG*dC*dA*dG*dC*dT*dC*dC*dC*dA*dT*dT*dG*dG*dG)”, in the data set on EGFR mRNA [3], the “reduction of EGFR mRNA expression, ranking in words” value (“reduction of EGFR mRNA expression” below) is recorded as “greatest amount of reduction of EGFR mRNA expression in both cell types”. Besides, the “reduction of EGFR protein production / EGFR synthesis” value in the data set on EGFR protein is recorded as 90-98%. In addition, the “% Inhibition of EGFR mRNA (10 kb band)” value in the data set with EGFR mRNA [1] was found to be 95%; with EGFR mRNA [2], 61%.

“ISIS 12877: CUCGGCTGACATTCCGGCAA; 2'-fluoro; phosphorothioate (all phosphorothioate, sugars by position and methylation of C not given here; 2'-fluoro modification, further chemistry not fully specified)”: the “reduction of EGFR mRNA expression” value with EGFR mRNA [3] is on record as “greatest amount of reduction of EGFR mRNA expression in both cell types”. In addition, in the data set with EGFR protein, the “reduction of EGFR protein production / EGFR synthesis” value is on record as 90-98%. Moreover, the “% Inhibition of EGFR mRNA (10 kb band)” value in the data set with EGFR mRNA [1] is recorded as 93%; with EGFR mRNA [2], 61%.

For “ISIS 10561: TGTCGGCCCCACAGGCTCGG; phosphorothioate 2'-deoxy; coding region, Ullrich 1110-1129 (antisense dT*dG*dT*dC*dG*dG*dC*dC*dC*dC*dA*dC*dA*dG*dG*dC*dT*dC*dG*dG)”, the “% Inhibition of EGFR mRNA (10 kb band)” value in the data set on EGFR mRNA [1] is recorded as “greater than 50%”; in the data set on EGFR mRNA [1] (listed as 10561), 75%; in the data set with EGFR mRNA [2], 45%.

For “ISIS 12878: GAGGCGTTCTCCTUUCUCCA; 2'-O-propyl; phosphorothioate; coding region, Ullrich 2966-2985 (all phosphorothioate, sugars by position and methylation of C not given here; 2'-O-propyl modification, further chemistry not fully specified)”, the “% Inhibition of EGFR mRNA (10 kb band)” value in the data set on EGFR mRNA [1] was “greater than 50%”; with EGFR mRNA [1] (listed as 12878), 66%; with EGFR mRNA [2], 22%.

Regarding “ISIS 12875: CCCCAGCAGCTCCCAUUGGG; 2'-fluoro; phosphorothioate; coding region, Ullrich 769-788 (all phosphorothioate, sugars by position and methylation of C not given here; 2'-fluoro modification, further chemistry not fully specified)”, the “reduction of EGFR mRNA expression” value with EGFR mRNA [3] is “slightly less potent”. In addition, the “% Inhibition of EGFR mRNA (10 kb band)” value in the data set with EGFR mRNA [1] was 77%; in the data set with EGFR mRNA [2], 57%.

Consider `COc1cc2ncnc(Nc3cccc(Br)c3)c2cc1OC` [PD153035], for which the “inhibition of EGFR tyrosine kinase activity” value in the data set on EGFR tyrosine kinase is given as “inhibits EGFR tyrosine kinase activity”. Moreover, in the data set on A431 cells, the “inhibition of the growth of A431 cells in nude mice” value is “can inhibit the growth of A431 cells in nude mice”.

“ISIS 12876: CCCCAGCAGCTCCCATTGGG; 5-methyl C; phosphorothioate; coding region, Ullrich 769-788 (all C 5-methyl, all phosphorothioate, sugars by position not given here)”: the “reduction of EGFR mRNA expression” value with EGFR mRNA [3] is “greatest amount of reduction of EGFR mRNA expression in both cell types”. Further, in the data set with EGFR protein, the “reduction of EGFR protein production / EGFR synthesis” value was 90-98%. Besides, the “% Inhibition of EGFR mRNA (10 kb band)” value in the data set on EGFR mRNA [1] stood at 97%; in the data set with EGFR mRNA [2], 66%.
